Assay results from ChEMBL document CHEMBL4619712, “Double-component diazeniumdiolate derivatives as anti-cancer agents” (Bioorg Med Chem, 2020).

How the values were obtained:
A549 = test: Anticancer activity against human A549 cells assessed as inhibition of cell growth after 72 hrs by MTT or MTS assay; assay type: functional, cell-based; conditions: A549, 72 h
BT-474 = test: Anticancer activity against human BT474 cells assessed as inhibition of cell growth after 72 hrs by MTT or MTS assay; assay type: functional, cell-based; conditions: BT-474, 72 h
Jurkat E6.1 = test: Anticancer activity against human Jurkat E6-1 cells assessed as inhibition of cell growth after 72 hrs by MTT or MTS assay; assay type: functional, cell-based; conditions: Jurkat E6.1, 72 h
MDA-MB-231 = test: Anticancer activity against human MDA-MB-231 cells assessed as inhibition of cell growth after 72 hrs by MTT or MTS assay; assay type: functional, cell-based; conditions: MDA-MB-231, 72 h
CCRF-CEM = test: Anticancer activity against human CCRF-CEM cells assessed as inhibition of cell growth after 72 hrs by MTT or MTS assay; assay type: functional, cell-based
[1] = Prodrug conversion assessed as Escherichia coli GST catalyzed NO release at 1 uM measured after 5 hrs in presence of GSH by DAF-FM DA reagent based fluorescence spectrophotometric analysis; assay type: ADME

Question: Which results are given for `CCOC(=O)N1CCN(/[N+]([O-])=N/Oc2ccc([N+](=O)[O-])cc2[N+](=O)[O-])CC1`?
Answer: IC50 (A549): 2.11 µM; IC50 (BT-474): 3.66 µM; IC50 (Jurkat E6.1): 0.92 µM; IC50 (MDA-MB-231): 7.93 µM; IC50 (CCRF-CEM): 0.89 µM

Question: Which IC50 (A549) does the source give for `O=[N+]([O-])c1ccc(O/N=[N+](\[O-])N2CCN(CCCN3CCN(/[N+]([O-])=N/Oc4ccc([N+](=O)[O-])cc4[N+](=O)[O-])CC3)CC2)c([N+](=O)[O-])c1` here?
Answer: The IC50 was 18.8 µM.

Question: And the IC50 (BT-474)?
Answer: Its IC50 is 10.8 µM.

Question: What about the IC50 (Jurkat E6.1) of the same compound?
Answer: Its IC50 is 4.06 µM.

Question: What about the IC50 (MDA-MB-231) of the same compound?
Answer: Its IC50 is greater than 20 µM.

Question: And the IC50 (CCRF-CEM)?
Answer: Its IC50 is 3.73 µM.

Question: And the “fold change (FC)” value [1]?
Answer: Its value is 2.
